Earlier results as cited in US10842805B2, “Compositions containing enriched natural crocin and/or crocetin, and their therapeutic or nutraceutical uses” (priority 2012, dated 2020).

Test system: ethanol-induced inhibition of hippocampal long-term potentiation
Conditions: mouse, in vivo

Compound	constituent to which the beneficial effect of saffron extract is attributed
CC(/C=C/C=C(\C)C(=O)O[C@@H]1O[C@H](CO[C@@H]2O[C@H](CO)[C@@H](O)[C@H](O)[C@H]2O)[C@@H](O)[C@H](O)[C@H]1O)=C\C=C\C=C(C)\C=C\C=C(/C)C(=O)O[C@@H]1O[C@H](CO[C@@H]2O[C@H](CO)[C@@H](O)[C@H](O)[C@H]2O)[C@@H](O)[C@H](O)[C@H]1O [crocin, Crocetin-di-beta-D-gentiobiosyl ester]	attributed to crocin
CC(/C=C/C=C(\C)C(=O)O)=C\C=C\C=C(C)\C=C\C=C(/C)C(=O)O [crocetin]	not crocetin
